SMILES strings stand for the structures. Like-named read-outs stand apart in the source and are kept apart here.

The assay concerns Trichophyton violaceum. Nature of the assay: growth of strains streaked on Sabouraud agar containing the products. The class given is cell-based. As to conditions: Tric.Violaceum; for activity at 10 µg/mL: read-out: % DE CROISSANCE; for inhibition at 2 µg/mL / inhibition at 10 µg/mL / inhibition at 20 µg/mL / inhibition at 50 µg/mL: read-out: inhibition de la croissance.

`CCCCOCCOCCOCc1cc2c(cc1CCC)OCO2` [Piperonyl., pipéronyl butoxyde]: the activity at 10 µg/mL is, setting by setting: (0 h, J0, 10µg/ml each product) 0%; (96 h, J4, 10µg/ml each product) 0%; (144 h, J6, 10µg/ml each product) 15%; (240 h, J10, 10µg/ml each product) 35%; (336 h, J14, 10µg/ml each product) 35%. Besides, the inhibition (commonly the change of the read-out against control, counted positive when it falls) at 2 µg/mL reads like this: (J+4, 2 µg/ml) 25%; (J+10, 2 µg/ml) 90%; (J+14, 2 µg/ml) 100%. In addition, the inhibition at 10 µg/mL by setting is: (J+4, 10 µg/ml) 0%; (J+10, 10 µg/ml) 35%; (J+14, 10 µg/ml) 35%. The inhibition at 20 µg/mL was 0% (J+4, 20 µg/ml); 15% (J+10, 20 µg/ml); 25% (J+14, 20 µg/ml). Besides, the inhibition at 50 µg/mL (J+4, 50 µg/ml) was found to be 0%; the inhibition at 50 µg/mL (J+10, 50 µg/ml) worked out at 0%; the inhibition at 50 µg/mL (J+14, 50 µg/ml) stood at 0%.
